# Results as given in patent US20110105397A1, “METHOD FOR TREATING HEART FAILURE WITH STRESSCOPIN-LIKE PEPTIDES” (priority 2009, published 2011).
# Legend:
# male dogs = test: GLP cardiovascular safety study in male dogs; type: in vivo, dog
# Method: The NOAEL of 33.3 ng/kg/min was determined in a GLP cardiovascular safety study in male dogs, which is considered to be the most relevant and sensitive species for cardiovascular drugs.
# A NOAEL of 33.3 ng/kg/min was determined in a GLP cardiovascular safety study in male dogs, which is considered to be the most relevant and sensitive species for cardiovascular drugs. […] Based on these values a starting dose of 0.1 ng/kg/min was selected.
# [1] = tested on: subjects with heart failure; test: Human hemodynamics (impedance cardiography), subjects with stable heart failure, 7.5-hour ascending dose IV infusion; type: in vivo; conditions: for Heart Rate CFB / Heart Rate Percent CFB: placebo-subtracted; for Cardiac Index CFB / Cardiac Index Percent CFB / Cardiac Output CFB / Cardiac Output Percent CFB / Diastolic Blood Pressure CFB / Diastolic Blood Pressure Percent CFB / Stroke Volume CFB / Stroke Volume Percent CFB / Systolic Blood Pressure CFB / Systolic Blood Pressure Percent CFB: post hoc analysis
# Method: (§1) Efficacy was based on the pharmacodynamic evaluation of hemodynamics, which was monitored using the noninvasive technique of impedance cardiography. Heart rate values were collected by impedance cardiography measurements. It was noted that the heart rate of subjects receiving placebo were elevated on the day of their infusions, at baseline before the infusion, and for the first 3 to 4 hours after the infusions were started (FIG. 17). Based on this observation, it appeared that there was a potential effect of period on the observed heart rate.
# (§2) A post hoc graphical analysis of the hemodynamic data was done to adjust for the elevated baseline values seen just before onset of the infusion, to obtain the best estimate of each hemodynamic parameter, and to correct for the effect of period. A post hoc graphic presentation was prepared from the complete (high frequency) dataset. This dataset contains the raw data that were further processed by the vendor (ie, CardioDynamics) and reported only at specific time points.
# (§3) In this post hoc analysis an extended baseline was used for each value that included all values recorded before initiation of the infusion. Then an average value for each parameter was obtained from the last 30 minutes of each 2.5 hour infusion and was used as the effect in that period of the infused dose. Each value was modified for the effect of period of infusion by subtracting the mean change from baseline seen in placebo subjects dosed in that same period (placebo subtraction). The dose effect was estimated by averaging the values from all subjects who received the same dose after the placebo subtraction.
# As may have occurred in healthy subjects, subjects with stable heart failure may have experienced anxiety before the start of the infusion that contributed to this increase in baseline heart rate values.
# healthy subjects = test: Human hemodynamics (impedance cardiography), healthy subjects, 7.5-hour ascending dose IV infusion; type: in vivo; conditions: for Heart Rate Change from Baseline / Heart Rate Percent Change from Baseline: post hoc analysis
# Method: as §1
# A mixed-effect model with baseline as covariate, period and dose group (≦3 ng/kg/min−low, >3 to ≦36 ng/kg/min−mid, >36 ng/kg/min−high) as fixed effects, and a random subject effect was established using the heart rate change from baseline in healthy subjects.
# To confirm that the statistically significant increase in heart rate is caused by the high dose group, a similar mixed-effect model that excluded the high dose level (>36 ng/kg/min) group was built up.
# as §2, §3
substance,measurement,setting,value
"H-TKFTLSLDVPTNIMNLLFNIAKAKNLRAQAAANAHLMAQI-NH2 [SEQ ID NO: 1, TKFTLSLDVPTNIMNLLFNIAKAKNLRAQAAANAHLMAQI-NH2]",upper limit of plasma concentration,"male dogs; dog, in vivo",12.0 ng/mL
same,safety margin,male dogs; expected Cpss at 0.1 ng/kg/min versus upper limit in dogs,"1,390 fold"
same,NOAEL,male dogs; male dogs,33.3 ng/kg/min
same,increase in heart rate,[1]; highest dose of 54 ng/kg/min,~10 bpm
same,Heart Rate CFB,[1]; infusion rate 0.3 ng/kg/min,1.5 bpm
same,Heart Rate Percent CFB,[1]; infusion rate 0.3 ng/kg/min,3.0%
same,Cardiac Index CFB,[1]; infusion rate 0.3 ng/kg/min,0.3 L/min/m^2
same,Cardiac Index Percent CFB,[1]; infusion rate 0.3 ng/kg/min,13.9%
same,Cardiac Output CFB,[1]; infusion rate 0.3 ng/kg/min,0.7 L/min
same,Cardiac Output Percent CFB,[1]; infusion rate 0.3 ng/kg/min,14.2%
same,Diastolic Blood Pressure CFB,[1]; infusion rate 0.3 ng/kg/min,−8.6 mm Hg
same,Diastolic Blood Pressure Percent CFB,[1]; infusion rate 0.3 ng/kg/min,−12.6%
same,Stroke Volume CFB,[1]; infusion rate 0.3 ng/kg/min,7.6 mL
same,Stroke Volume Percent CFB,[1]; infusion rate 0.3 ng/kg/min,9.5%
same,Systolic Blood Pressure CFB,[1]; infusion rate 0.3 ng/kg/min,−18.2 mm Hg
same,Systolic Blood Pressure Percent CFB,[1]; infusion rate 0.3 ng/kg/min,−15.8%
same,Heart Rate CFB,[1]; infusion rate 1 ng/kg/min,−0.4 bpm
same,Heart Rate Percent CFB,[1]; infusion rate 1 ng/kg/min,0.2%
same,Cardiac Index CFB,[1]; infusion rate 1 ng/kg/min,0.2 L/min/m^2
same,Cardiac Index Percent CFB,[1]; infusion rate 1 ng/kg/min,10.1%
same,Cardiac Output CFB,[1]; infusion rate 1 ng/kg/min,0.5 L/min
same,Cardiac Output Percent CFB,[1]; infusion rate 1 ng/kg/min,10.2%
same,Diastolic Blood Pressure CFB,[1]; infusion rate 1 ng/kg/min,−6.1 mm Hg
same,Diastolic Blood Pressure Percent CFB,[1]; infusion rate 1 ng/kg/min,−9.1%
same,Stroke Volume CFB,[1]; infusion rate 1 ng/kg/min,6.6 mL
same,Stroke Volume Percent CFB,[1]; infusion rate 1 ng/kg/min,9.1%
same,Systolic Blood Pressure CFB,[1]; infusion rate 1 ng/kg/min,−4.9 mm Hg
same,Systolic Blood Pressure Percent CFB,[1]; infusion rate 1 ng/kg/min,−4.7%
same,Heart Rate CFB,[1]; infusion rate 3 ng/kg/min,−1.3 bpm
same,Heart Rate Percent CFB,[1]; infusion rate 3 ng/kg/min,−0.9%
same,Cardiac Index CFB,[1]; infusion rate 3 ng/kg/min,0.1 L/min/m^2
same,Cardiac Index Percent CFB,[1]; infusion rate 3 ng/kg/min,6.9%
same,Cardiac Output CFB,[1]; infusion rate 3 ng/kg/min,0.3 L/min
same,Cardiac Output Percent CFB,[1]; infusion rate 3 ng/kg/min,7.0%
same,Diastolic Blood Pressure CFB,[1]; infusion rate 3 ng/kg/min,−8.6 mm Hg
same,Diastolic Blood Pressure Percent CFB,[1]; infusion rate 3 ng/kg/min,−13.0%
same,Stroke Volume CFB,[1]; infusion rate 3 ng/kg/min,4.8 mL
same,Stroke Volume Percent CFB,[1]; infusion rate 3 ng/kg/min,7.3%
same,Systolic Blood Pressure CFB,[1]; infusion rate 3 ng/kg/min,−9.5 mm Hg
same,Systolic Blood Pressure Percent CFB,[1]; infusion rate 3 ng/kg/min,−9.2%
same,Heart Rate CFB,[1]; infusion rate 9 ng/kg/min,0.2 bpm
same,Heart Rate Percent CFB,[1]; infusion rate 9 ng/kg/min,1.5%
same,Cardiac Index CFB,[1]; infusion rate 9 ng/kg/min,0.2 L/min/m^2
same,Cardiac Index Percent CFB,[1]; infusion rate 9 ng/kg/min,9.1%
same,Cardiac Output CFB,[1]; infusion rate 9 ng/kg/min,0.5 L/min
same,Cardiac Output Percent CFB,[1]; infusion rate 9 ng/kg/min,9.2%
same,Diastolic Blood Pressure CFB,[1]; infusion rate 9 ng/kg/min,−8.6 mm Hg
same,Diastolic Blood Pressure Percent CFB,[1]; infusion rate 9 ng/kg/min,−11.9%
same,Stroke Volume CFB,[1]; infusion rate 9 ng/kg/min,5.9 mL
same,Stroke Volume Percent CFB,[1]; infusion rate 9 ng/kg/min,7.6%
same,Systolic Blood Pressure CFB,[1]; infusion rate 9 ng/kg/min,−10.6 mm Hg
same,Systolic Blood Pressure Percent CFB,[1]; infusion rate 9 ng/kg/min,−9.4%
same,Heart Rate CFB,[1]; infusion rate 18 ng/kg/min,0.8 bpm
same,Heart Rate Percent CFB,[1]; infusion rate 18 ng/kg/min,2.5%
same,Cardiac Index CFB,[1]; infusion rate 18 ng/kg/min,0.4 L/min/m^2
same,Cardiac Index Percent CFB,[1]; infusion rate 18 ng/kg/min,14.5%
same,Cardiac Output CFB,[1]; infusion rate 18 ng/kg/min,0.8 L/min
same,Cardiac Output Percent CFB,[1]; infusion rate 18 ng/kg/min,15.5%
same,Diastolic Blood Pressure CFB,[1]; infusion rate 18 ng/kg/min,−7.6 mm Hg
same,Diastolic Blood Pressure Percent CFB,[1]; infusion rate 18 ng/kg/min,−11.4%
same,Stroke Volume CFB,[1]; infusion rate 18 ng/kg/min,9.3 mL
same,Stroke Volume Percent CFB,[1]; infusion rate 18 ng/kg/min,12.9%
same,Systolic Blood Pressure CFB,[1]; infusion rate 18 ng/kg/min,−8.8 mm Hg
same,Systolic Blood Pressure Percent CFB,[1]; infusion rate 18 ng/kg/min,−8.7%
same,Heart Rate CFB,[1]; infusion rate 36 ng/kg/min,3.6 bpm
same,Heart Rate Percent CFB,[1]; infusion rate 36 ng/kg/min,6.3%
same,Cardiac Index CFB,[1]; infusion rate 36 ng/kg/min,0.3 L/min/m^2
same,Cardiac Index Percent CFB,[1]; infusion rate 36 ng/kg/min,12.4%
same,Cardiac Output CFB,[1]; infusion rate 36 ng/kg/min,0.7 L/min
same,Cardiac Output Percent CFB,[1]; infusion rate 36 ng/kg/min,12.4%
same,Diastolic Blood Pressure CFB,[1]; infusion rate 36 ng/kg/min,−12.5 mm Hg
same,Diastolic Blood Pressure Percent CFB,[1]; infusion rate 36 ng/kg/min,−18.5%
same,Stroke Volume CFB,[1]; infusion rate 36 ng/kg/min,4.2 mL
same,Stroke Volume Percent CFB,[1]; infusion rate 36 ng/kg/min,6.0%
same,Systolic Blood Pressure CFB,[1]; infusion rate 36 ng/kg/min,−16.4 mm Hg
same,Systolic Blood Pressure Percent CFB,[1]; infusion rate 36 ng/kg/min,−14.9%
same,Heart Rate CFB,[1]; infusion rate 45 ng/kg/min,3.8 bpm
same,Heart Rate Percent CFB,[1]; infusion rate 45 ng/kg/min,7.5%
same,Cardiac Index CFB,[1]; infusion rate 45 ng/kg/min,0.3 L/min/m^2
same,Cardiac Index Percent CFB,[1]; infusion rate 45 ng/kg/min,12.6%
same,Cardiac Output CFB,[1]; infusion rate 45 ng/kg/min,0.7 L/min
same,Cardiac Output Percent CFB,[1]; infusion rate 45 ng/kg/min,13.3%
same,Diastolic Blood Pressure CFB,[1]; infusion rate 45 ng/kg/min,−12.6 mm Hg
same,Diastolic Blood Pressure Percent CFB,[1]; infusion rate 45 ng/kg/min,−19.0%
same,Stroke Volume CFB,[1]; infusion rate 45 ng/kg/min,3.3 mL
same,Stroke Volume Percent CFB,[1]; infusion rate 45 ng/kg/min,5.4%
same,Systolic Blood Pressure CFB,[1]; infusion rate 45 ng/kg/min,−12.0 mm Hg
same,Systolic Blood Pressure Percent CFB,[1]; infusion rate 45 ng/kg/min,−11.7%
same,Heart Rate CFB,[1]; infusion rate 54 ng/kg/min,7.0 bpm
same,Heart Rate Percent CFB,[1]; infusion rate 54 ng/kg/min,11.5%
same,Cardiac Index CFB,[1]; infusion rate 54 ng/kg/min,0.2 L/min/m^2
same,Cardiac Index Percent CFB,[1]; infusion rate 54 ng/kg/min,7.5%
same,Cardiac Output CFB,[1]; infusion rate 54 ng/kg/min,0.4 L/min
same,Cardiac Output Percent CFB,[1]; infusion rate 54 ng/kg/min,11.5%
same,Diastolic Blood Pressure CFB,[1]; infusion rate 54 ng/kg/min,−14.4 mm Hg
same,Diastolic Blood Pressure Percent CFB,[1]; infusion rate 54 ng/kg/min,−23.9%
same,Stroke Volume CFB,[1]; infusion rate 54 ng/kg/min,-2.5 mL
same,Stroke Volume Percent CFB,[1]; infusion rate 54 ng/kg/min,0.5%
same,Systolic Blood Pressure CFB,[1]; infusion rate 54 ng/kg/min,−18.8 mm Hg
same,Systolic Blood Pressure Percent CFB,[1]; infusion rate 54 ng/kg/min,−21.4%
same,cardiac output or cardiac index,healthy subjects; all doses ≦36 ng/kg/min,no change in cardiac output or cardiac index
same,heart rate compared with baseline,healthy subjects; doses less than 36 ng/kg/min,no notable increase in heart rate compared with baseline
same,increase in heart rate from baseline,"healthy subjects; doses of 72 ng/kg/min and higher, end of 2.5-hour infusion period",~30 bpm
same,Heart Rate Change from Baseline,healthy subjects; infusion rate 0.1 ng/kg/min,−2.8 bpm
same,Heart Rate Percent Change from Baseline,healthy subjects; infusion rate 0.1 ng/kg/min,−4.6%
same,Heart Rate Change from Baseline,healthy subjects; infusion rate 0.3 ng/kg/min,−0.4 bpm
same,Heart Rate Percent Change from Baseline,healthy subjects; infusion rate 0.3 ng/kg/min,−0.2%
same,Heart Rate Change from Baseline,healthy subjects; infusion rate 1 ng/kg/min,−2.0 bpm
same,Heart Rate Percent Change from Baseline,healthy subjects; infusion rate 1 ng/kg/min,−3.3%
same,Heart Rate Change from Baseline,healthy subjects; infusion rate 3 ng/kg/min,1.3 bpm
same,Heart Rate Percent Change from Baseline,healthy subjects; infusion rate 3 ng/kg/min,2.6%
same,Heart Rate Change from Baseline,healthy subjects; infusion rate 9 ng/kg/min,0.1 bpm
same,Heart Rate Percent Change from Baseline,healthy subjects; infusion rate 9 ng/kg/min,0.6%
same,Heart Rate Change from Baseline,healthy subjects; infusion rate 18 ng/kg/min,2.1 bpm
same,Heart Rate Percent Change from Baseline,healthy subjects; infusion rate 18 ng/kg/min,3.9%
same,Heart Rate Change from Baseline,healthy subjects; infusion rate 36 ng/kg/min,5.2 bpm
same,Heart Rate Percent Change from Baseline,healthy subjects; infusion rate 36 ng/kg/min,9.4%
same,Heart Rate Change from Baseline,healthy subjects; infusion rate 54 ng/kg/min,12.7 bpm
same,Heart Rate Percent Change from Baseline,healthy subjects; infusion rate 54 ng/kg/min,20.5%
same,Heart Rate Change from Baseline,healthy subjects; infusion rate 72 ng/kg/min,18.1 bpm
same,Heart Rate Percent Change from Baseline,healthy subjects; infusion rate 72 ng/kg/min,30.3%
same,Heart Rate Change from Baseline,healthy subjects; infusion rate 108 ng/kg/min,20.9 bpm
same,Heart Rate Percent Change from Baseline,healthy subjects; infusion rate 108 ng/kg/min,31.3%
same,Heart Rate Change from Baseline,healthy subjects; infusion rate 144 ng/kg/min,21.2 bpm
same,Heart Rate Percent Change from Baseline,healthy subjects; infusion rate 144 ng/kg/min,34.3%
